Results published in patent publication US20210130312A1, “INHIBITORS OF EYA3-PROTEIN TYROSINE PHOSPHATASE IN DNA DAMAGE REPAIR SIGNALING OF PULMONARY ARTERIAL HYPERTENSION” (CHILDREN'S HOSPITAL MEDICAL CENTER, priority 2018, published 2021).

Tests used:
[1] = system: γ-H2AX and 53BP1 foci in PASMC; assay: γ-H2AX and 53BP1 staining (DDR) in lungs from rats subject to the SuHx protocol; assay type: in vivo, rat; conditions: lungs of SuHx rats treated with EYA-PTP inhibitor
Source text: γ-H2AX foci report on the existence of DSBs, and the assembly of functional DDR complexes is characterized by the presence of 53BP1 foci. Rats subject to the SuHx protocol show increased γ-H2AX and 53BP1 staining in both PAEC and PASMC, likely as a result of oxidative stress. Rats treated with EYA-PTP inhibitor BZ had reduced γ-H2AX staining, as well as reduced 53BP1 foci formation in PASMC.

[2] = system: Sugen-Hypoxia (SuHx) rat model; assay: Sugen-Hypoxia (SuHx) rat model of PAH: RVSP by right heart catheterization, Fulton's index, PV remodeling; assay type: in vivo
Experimental: Sugen-Hypoxia (SuHx) rat model was used where a single administration of the VEGF inhibitor SU-5416 is followed by 3 weeks of hypoxia (10% O2) and PAH develops between 3-5 weeks after rats (adult Sprague-Daley males) are returned to room air. To test the effect of EYA-PTP inhibition on the development of PAH, benzarone (BZ) was administered every 3 days for 5 weeks after return to room air. The rats were maintained for a further 3 weeks in room air and then right ventricular systolic pressure (RVSP) measured by right heart catheterization. The increase in RVSP in BZ-treated rats was 32% less in BZ-treated rats than in vehicle-treated rats. Fulton's index (right ventricle/left ventricle plus septum weight) was also lower (by 28% relative to vehicle-treated controls) in BZ-treated animals indicating reduced RV hypertrophy.

[3] = rat SuHx model of PH, statement in words

**Q.** With CCc1oc2ccccc2c1C(=O)c1ccc(O)cc1 [BZ, benzarone] as the molecule, how does the “53BP1 foci formation in PASMC” value [1] read?
**A.** reduced

**Q.** What about the γ-H2AX staining [1] of the same molecule?
**A.** reduced

**Q.** What about the “increase in RVSP, less than in vehicle-treated rats” value ([2]; SuHx rats, administered every 3 days for 5 weeks after return to room air, measured after a further 3 weeks in room air) of the same molecule?
**A.** 32%

**Q.** What about the “Fulton's index (right ventricle/left ventricle plus septum weight), lower relative to vehicle-treated controls” value ([2]; SuHx rats, same regimen, indicates reduced RV hypertrophy) of the same molecule?
**A.** 28%

**Q.** What about the PV remodeling [2, 3] of the same molecule?
**A.** effectively reduces

**Q.** And the RVSP [2, 3]?
**A.** effectively reduces
